# Data as given in patent US11980613B2, “Methods for reversing HIV latency using BAF complex modulating compounds” (priority 2018, dated 2024).
# “Also recorded” adds a separate entry of the source.
# Assays:
# [1] = test system: latent HIV-1 in ex vivo infected human CD4+ T cells; assay: Ex vivo HIV latency model (Lassen), luciferase readout; type: cell-based
# Experimental: [drawing 27] i. BRD-K25923209: To Macrocycle 2141-039b (0.804 g, 1.550 mmol) dissolved in MeOH (Volume: 15.50 ml) was added tin(II) chloride dihydrate (3.50 g, 15.50 mmol). […] Upon completion, the reaction mixture was concentrated and the resulting residue was dissolved in EtOAc and washed with 2 M aq. KOH (2×). The combined aqueous layers were washed with EtOAc (4×). The resulting organic layers were washed with brine, saturated aqueous NaHCO3, water, and brine, dried over MgSO4, filtered, and concentrated. […] BRD-K80443127: A screwtop vial was charged with aniline (BRD-K25923209) (43.3 mg, 0.089 mmol) and CH2Cl2 (Volume: 886 μl, Density: 1.325 g/ml). Isopropyl chloroformate (115 μl, 0.115 mmol) and DIEA (46.4 μl, 0.266 mmol) were added dropwise and reaction stirred under ambient conditions for 1 h. […] BRD-K04244835: A 2.5 mL microwave vial was charged with aniline (BRD-K25923209) (40 mg, 0.082 mmol) and EtOH (Volume: 819 μl, Density: 0.81 g/ml). Squaramide (CRE-III-001) (20.75 mg, 0.098 mmol), DIEA (42.8 μl, 0.246 mmol), and DMAP (2.000 mg, 0.016 mmol) were added in sequence and the vial was sealed. […] 9. […] 10. […] 11.
# [2] = test system: HIV-1 5′-LTR (Nuc-1); assay: FAIRE assay in J-Lat 11.1; type: cell-based; conditions: overnight compound treatment
# Experimental: 24. Activation markers, apoptosis and viability of primary CD4+ T cells: Activation markers, namely CD25 and CD69 were analyzed as described previously^55. Briefly, CD4+ T cells were treated with DMSO, compound, or PMA/Ionomycin for 24 and 72 hours. Cells were collected, washed with PBS and stained for 30 min at 4° C. with α-CD25-APC (17-0259-42, eBioscience) and α-CD69-FITC (11-0699-42, eBioscience). Following two washes with PBS, cells were fixed with 1% HCHO at 4° C. and analyzed by flow cytometry with Becton Dickinson Fortessa instrument. To determine percent of apoptotic cells after treatment cells were stimulated for 24 and 72 hours and stained with anti-AnnexinV-PE (BD Biosciences, cat. 556454) in the presence of 2.5 mM CaCl2 for 20 min at 4° C. Cells were analyzed by Becton Dickinson Fortessa flow cytometer. Data represents the average of six experiments performed on cells from different healthy donors. Viability of ex-vivo infected primary CD4+ cells was determined by flow cytometry on the basis of forward versus side scatter analysis. 25. FAIRE: FAIRE experiment was performed as described, with minor modifications^55. Eighteen hours prior to analysis, J-Lat 11.1 cells were treated with BAFi's where indicated. Cells were fixed for 10 min by adding formaldehyde to a final concentration of 1% at room temperature. Twenty million cells were used per FAIRE experiment. […]
# [3] = test system: latent HIV-1 in CD4+ T cells from c-ART treated HIV-1 infected patients; assay: HIV latency reversal from patient samples (cell associated HIV Pol mRNA); type: cell-based, human
# Experimental: 23. HIV latency reversal from patient samples: All patients were older than 18 years, c-ART treated for at least 3 years, and their viral loads were below 50 copies/ml for more than 12 months with no blips in the past two years. CD4+ T cells from aviremic HIV+ patients were isolated as described previously^55 with minor modifications. Briefly, frozen PBMCs were cultured in RPMI medium over-night to recover. Then next day CD4+ T cells were isolated twice (enriched CD4+ T cells were subjected to a second round of CD4+ T cell enrichment) and left for 6 hrs to recover. Three million cells were treated with DMSO, 10 μM BRD-K80443127, 200 nM Prostratin, 10 μM BRD-K80443127 and 200 nM prostratin, and αCD3/CD28 magnetic beads (at cell:bead ration 1:1) as a positive control in triplicate. After 24 hours cells were lysed in TRIreagent (Sigma), total RNA was isolated with Total RNA Zol-Out (A&A Biotechnology) kit and cDNA was synthetized using random primers and Superscript II Reverse Transcriptase (Life Technologies). Detection of cellular associated pol RNA was performed as described previously (Pol: For […] (SEQ ID NO:15), Rev-[…] (SEQ ID NO: 16))^55. This study was conducted in accordance with the ethical principles of the Declaration of Helsinki. HIV-1 infected patient volunteers were informed and provided signed consent to participate in the study. The study protocol was approved by The Netherlands Medical Ethics Committee (MEC-2012-583). cDNA generated from control and 10 μM BRD-K80443127 treated samples was used to assess expression of BAF target genes biomarker genes-p21 and C-MYC.
smiles,measurement,setting,value
CO[C@H]1CN(C)C(=O)c2cc(NC(=O)OC(C)C)ccc2OC[C@H](C)N(Cc2ccc(-c3ccccn3)cc2)C[C@@H]1C [BRD-K80443127],latency reversal (transcription of latent HIV-1),[1]; 24 h treatment,efficiently triggered HIV transcription
same,latency reversal in combination with other latency reversal agents,[1]; compared to single agent treatments,potentiated the effect of other latency reversal agents
same,chromatin accessibility at the Nuc-1 position of the 5′ LTR,[2],increased chromatin accessibility
same,"cell associated HIV mRNA (Pol), response","[3]; Patient 1 (one patient), single agents, 24 hours",responded; also recorded: significant increase
same,potentiation of prostratin activity,[3]; all three patients,significant potentiation of prostratin activity
same,cell associated HIV-1 POL,"[3]; patient 2 and 3, 24 hours",did not result in a significant increase
